Laboratory results taken from ChEMBL document CHEMBL1141727, “Isolation and cytotoxic evaluation of marine sponge-derived norterpene peroxides” (J Nat Prod, 1998).

How the values were obtained:
HCT-15 = assay: Growth inhibition of human HCT15 cells; format: functional
MDA-N = assay: Growth inhibition of human MDA-N cells; format: functional
NCI-H522 = assay: Growth inhibition of human NCI-H522 cells; format: functional
HCC 2998 = assay: Growth inhibition of human HCC2998 cells; format: functional
NCI-H322M = assay: Growth inhibition of human NCI-H322M cells; format: functional
[1] = Growth inhibition of mouse M17/ADR cells assessed as zone units at 50 ug/disk by disk diffusion agar colony formation assay; format: functional
UO-31 = assay: Growth inhibition of human UO31 cells; format: functional
OVCAR-3 = assay: Growth inhibition of human OVCAR-3 cells; format: functional
SN12C = assay: Growth inhibition of human SN12C cells; format: functional
DU-145 = assay: Growth inhibition of human DU145 cells; format: functional
Mus musculus = assay: Toxicity in mouse at 424 mg/kg, iv in split dose; format: organism-based; design: dose 424 mg/kg, route intravenous; settings: in vivo
HT-29 = assay: Growth inhibition of human HT-29 cells; format: functional
EKVX = assay: Growth inhibition of human EKVX cells; format: functional
RXF 393 = assay: Growth inhibition of human […] cells; format: functional
UACC-257 = assay: Growth inhibition of human UACC257 cells; format: functional
M14 = assay: Growth inhibition of human M14 cells; format: functional
MC-38 = assay: Growth inhibition of mouse C38 cells assessed as zone units at 50 ug/disk by disk diffusion agar colony formation assay; format: functional
HL-60(TB) = assay: Growth inhibition of human HL-60(TB) cells; format: functional
[2] = Growth inhibition of human MCF7/ADR resistant cells; format: functional; settings: NCI/ADR-RES
OVCAR-4 = assay: Growth inhibition of human OVCAR4 cells; format: functional
SF-268 = assay: Growth inhibition of human SF268 cells; format: functional
P388 = assay: Growth inhibition of mouse P388 cells assessed as zone units at 50 ug/disk by disk diffusion agar colony formation assay; format: functional
CX-1 = assay: Growth inhibition of human CX-1 cells assessed as zone units at 50 ug/disk by disk diffusion agar colony formation assay; format: functional
BT-549 = assay: Growth inhibition of human BT549 cells; format: functional
KM12 = assay: Growth inhibition of human KM12 cells; format: functional
U-251 = assay: Growth inhibition of human U251 cells; format: functional
L1210 = assay: Growth inhibition of mouse L1210 cells assessed as zone units at 50 ug/disk by disk diffusion agar colony formation assay; format: functional
HOP-92 = assay: Growth inhibition of human HOP92 cells; format: functional
HOP-62 = assay: Growth inhibition of human HOP62 cells; format: functional
NCI-H460 = assay: Growth inhibition of human NCI-H460 cells; format: functional
SNB-19 = assay: Growth inhibition of human SNB19 cells; format: functional
SNB-75 = assay: Growth inhibition of human SNB75 cells; format: functional
SW-620 = assay: Growth inhibition of human SW620 cells; format: functional
OVCAR-5 = assay: Growth inhibition of human OVCAR5 cells; format: functional
SF-295 = assay: Growth inhibition of human SF295 cells; format: functional
TK-10 = assay: Growth inhibition of human TK10 cells; format: functional
COLO 205 = assay: Growth inhibition of human COLO205 cells; format: functional
NCI-H23 = assay: Growth inhibition of human NCI-H23 cells; format: functional
IGROV-1 = assay: Growth inhibition of human IGROV1 cells; format: functional
UACC-62 = assay: Growth inhibition of human UACC62 cells; format: functional
SK-OV-3 = assay: Growth inhibition of human SKOV3 cells; format: functional
LOX IMVI = assay: Growth inhibition of human LOXIMVI cells; format: functional
ACHN = assay: Growth inhibition of human ACHN cells; format: functional
K562 = assay: Growth inhibition of human K562 cells; format: functional
HCT-116 = assay: Growth inhibition of human HCT116 cells; format: functional
PC-3 = assay: Growth inhibition of human PC3 cells; format: functional
SK-MEL-5 = assay: Growth inhibition of human SK-MEL-5 cells; format: functional
MOLT-4 = assay: Growth inhibition of human MOLT4 cells; format: functional
786-0 = assay: Growth inhibition of human 786-0 cells; format: functional
MCF7 = assay: Growth inhibition of human MCF7 cells; format: functional
SF-539 = assay: Growth inhibition of human SF539 cells; format: functional
SK-MEL-28 = assay: Growth inhibition of human SK-MEL-28 cells; format: functional
SK-MEL-2 = assay: Growth inhibition of human SK-MEL-2 cells; format: functional
CCRF-CEM = assay: Growth inhibition of human CCRF-CEM cells; format: functional
CAKI-1 = assay: Growth inhibition of human Caki1 cells; format: functional
A549 = assay: Growth inhibition of human A549 cells; format: functional
SR = assay: Growth inhibition of human SR cells; format: functional
OVCAR-8 = assay: Growth inhibition of human OVCAR8 cells; format: functional
T47D = assay: Growth inhibition of human T47D cells; format: functional
[3] = Growth inhibition of human Hs 578T cells; format: functional
[4] = Growth inhibition of human […] cells; format: functional
MDA-MB-435 = assay: Growth inhibition of human MDA-MB-435 cells; format: functional
MDA-MB-231 = assay: Growth inhibition of human MDA-MB-231 cells; format: functional
Malme-3M = assay: Growth inhibition of human MALME-3M cells; format: functional

COC(=O)[C@H](C)[C@H]1CC[C@@](C)(CCC2=C(C)CCCC2(C)C)OO1 [NUAPAPUIN A METHYL ESTER]
GI50 (HCT-15): > 25 µM | GI50 (MDA-N): > 25 µM | GI50 (NCI-H522): > 16.1 µM | GI50 (HCC 2998): > 25 µM | GI50 (NCI-H322M): > 25 µM | Activity [1]: 400 Zone units | GI50 (UO-31): > 23.7 µM | GI50 (OVCAR-3): > 25 µM | GI50 (SN12C): > 25 µM | GI50 (DU-145): > 25 µM | Activity (Mus musculus): Non-toxic | GI50 (HT-29): > 25 µM | GI50 (EKVX): > 25 µM | GI50 (RXF 393): > 25 µM | GI50 (UACC-257): > 25 µM | GI50 (M14): > 25 µM | Activity (MC-38): 700 Zone units | GI50 (HL-60(TB)): > 5 µM | GI50 [2]: > 25 µM | GI50 (OVCAR-4): > 25 µM | GI50 (SF-268): > 25 µM | Activity (P388): 400 Zone units | Activity (CX-1): 310 Zone units | GI50 (BT-549): > 5 µM | GI50 (KM12): > 5 µM | GI50 (U-251): > 25 µM | Activity (L1210): 400 Zone units | GI50 (HOP-92): > 25 µM | GI50 (HOP-62): > 25 µM | GI50 (NCI-H460): > 25 µM | GI50 (SNB-19): > 25 µM | GI50 (SNB-75): > 25 µM | GI50 (SW-620): > 25 µM | GI50 (OVCAR-5): > 25 µM | GI50 (SF-295): > 25 µM | GI50 (TK-10): > 25 µM | GI50 (COLO 205): > 25 µM | GI50 (NCI-H23): > 25 µM | GI50 (IGROV-1): > 5 µM | GI50 (UACC-62): > 25 µM | GI50 (SK-OV-3): > 25 µM | GI50 (LOX IMVI): > 5 µM | GI50 (ACHN): 25 µM | GI50 (K562): 14.3 µM | GI50 (HCT-116): > 25 µM | GI50 (PC-3): > 25 µM | GI50 (SK-MEL-5): > 25 µM | GI50 (MOLT-4): > 5 µM | GI50 (786-0): > 25 µM | GI50 (MCF7): > 25 µM | GI50 (SF-539): > 25 µM | GI50 (SK-MEL-28): > 25 µM | GI50 (SK-MEL-2): > 25 µM | GI50 (CCRF-CEM): 19.4 µM | GI50 (CAKI-1): > 25 µM | GI50 (A549): > 5 µM | GI50 (SR): > 25 µM | GI50 (OVCAR-8): > 25 µM | GI50 (T47D): > 25 µM | GI50 [3]: > 25 µM | GI50 [4]: > 25 µM | GI50 (MDA-MB-435): > 25 µM | GI50 (MDA-MB-231): > 25 µM | GI50 (Malme-3M): > 25 µM
